# Experiments:
# CD8+ T cells = assay: In vitro stimulation of CD3+ T cells with aCD3/aCD28 beads in presence of UA; format: cell-based, FVB mice
# Experimental: (§1) (FIG. 2A) Scheme of CD3+ T-cell activation and analysis for various timepoints. (FIG. 2B) Reduced effector molecule expression on in vitro treated cells (n=3 pooled from three independent experiments). Isolated T-cells were stimulated for 48 h at the presence of UA or DMSO in the indicated doses. Data are mean ± SD, *p < 0.05 by two-sided t-test. (FIG. 2C) Reduced effector molecule expression on in vitro treated cells (n=3 pooled from three independent experiments). Isolated T-cells were stimulated for 48 h at the presence of UA or DMSO in the indicated doses. Data are mean ± SD, *p < 0.05 by two-sided t-test. (FIG. 2D) Quantification of T memory stem cells (TSCM: CD44^-CD62L^+Sca1^hi) after 24 h, 48 h and 96 h post stimulation with aCD3/aCD28 stimulation beads as indicated in (A) (n=4 pooled from four independent experiments). Data are mean ± SD, statistical analysis was performed via two-sided t-test (*p < 0.05; **p < 0.01; n.s. not significant). (FIG. 2E) Mitochondrial membrane potential within naïve CD62L^+CD44^-CD8^+ T cells, with TMRM^lo representing cells with low mitochondrial membrane potential. Cells were stimulated for 48 h as depicted in (A). Data are mean ± SD, n=4; ***p <0.001 by two-sided t-test. Experiment was repeated twice in independent experiments. (FIG. 2F) Representative histogram and quantification of memory marker CD95 expression in CD62L^+CD44^-CD8^+ cells, 48 hours after in vitro stimulation. Data are mean ± SD; n=5; ****p < 0.0001 by two-sided t-test. Data depicts one of two independent experiments. (FIG. 2G) Analysis of TIL of UA-fed mice, treated as depicted in FIG. 1J. Percentage of TSCM within CD8+ (G; n=7), as well as TCF1 (H; n=7) PD1^hi,Tim3^hi and CTLA4hi (I-K, all n=6) in the TIL CD8+ population are shown. Data are mean ± SD, statistical analysis was performed via two-sided t-test (*p < 0.05; **p < 0.01;, ***p <0.001.). Data depicts one of two independent experiments. (FIG. 2H) The same experiment as FIG. 2G with TCF1 (n=7) in the TIL CD8+ population. (FIG. 2I) The same experiment as FIG. 2G with PD1^hi (n=6) in the TIL CD8+ population. (FIG. 2J) The same experiment as FIG. 2G with Tim3^hi (n=6) in the TIL CD8+ population. (FIG. 2K) The same experiment as FIG. 2G with CTLA4hi (n=6) in the TIL CD8+ population. (FIG. 2L) Flow cytometry readout of ex vivo cytokine release of previously isolated TIL upon re-stimulation with PMA/ionomycin. Data are mean ± SD with n=7 per group. Statistical analysis was performed by two-sided t-test (**p < 0.01). One out of two independent experiments are shown. (FIG. 2M) Flow cytometry readout of ex vivo cytokine release of previously isolated TIL upon re-stimulation with PMA/ionomycin. Data are mean ± SD with n=7 per group. Statistical analysis was performed by two-sided t-test (**p < 0.01). One out of two independent experiments are shown.
# (FIG. 4A) Scheme of CD3+ T-cell activation and analysis for various timepoints in order to investigate mitophagy induction in vitro. (FIG. 4B) Analysis of mitochondrial membrane potential within CD8+ T cells, with TMRM^lo representing cells with low mitochondrial membrane potential. Analysis was performed six hours after stimulation with aCD/aCD28 stimulation beads at the presence of the indicated treatments. N=4 per group, *p < 0.05 by Mann Whitney U test. One of two independent experiments are shown. (FIG. 4C) Representative flow histogram and quantification of lysosome formation in CD8+ cells six hours after in vitro stimulation. MFI shown relative to DMSO controls, n=4. Data are normalised mean ± SD, statistical analysis by two-sided t-test. One out of two independent experiments are shown. (FIG. 4D) Mitotracker Red staining of in vitro stimulated CD8+ cells after 24 hours of Urolithin A (UA25 n=6; UA50 n=6) or vehicle control treatment (DMSO: n=4). A representative flow histogram depicting identification of Mitotracker^hi cells is shown. […]
# [1] = commercially-available supplements containing urolithin A; cited from earlier work
# TIL CD8+ population = assay: Flow cytometry analysis of TIL of UA-fed mice with APTK tumors; format: in vivo, C57BL/6 mice
# Experimental: as §1
# (FIG. 5L) UA induces PGC-1α expression in stimulated CD8+ cells. PGC-1α MFI at 48 h upon stimulation, as assessed by intracellular staining, is shown (n=3). One of two independent experiments are shown. Data are mean ± SD, statistical analysis was performed by two-sided t-test (p**<0.01). (FIG. 5M) Mitochondrial content of TIL CD8+ cells harvested from APTK-carrying mice, fed UA or control diet as depicted in FIG. 1J. Assessed by Mitotracker Red staining. Data are mean ± SD, *p < 0.05 by two-sided t-test. (FIG. 5N) Mitophagy and subsequent PGAM5 release drive PGC-1α upregulation. PGC-1α expression of CD8+ cells derived from Pink1^-/- KO mice upon 48 h stimulation in vitro in the presence of UA or DMSO control (n=4). Data are mean ± SD, statistical analysis was performed by two-sided t-test. Depicts one of two independent experiments. (FIG. 5O) Mitophagy and subsequent PGAM5 release drive PGC-1 α upregulation. PGC-1α expression of CD8+ cells derived from PGAM5^-^/- mice upon 48 h stimulation in vitro in the presence of UA or DMSO control (n=4). Data are mean ± SD, statistical analysis was performed by two-sided t-test. […]
# [2] = ex vivo restimulation with PMA/ionomycin
smiles,measurement,setting,value
O=c1oc2cc(O)ccc2c2ccc(O)cc12 [Urolithin A],number of CD44-CD62L+Sca1hi TSCM,"CD8+ T cells; 24 h, 48 h and 96 h post stimulation",in a dose dependent manner to a significantly increased number
same,"loss of mitochondrial content per T cell subset (TSCM, TCM, TEFF)","CD8+ T cells; 24 hours, 50 µM Urolithin A",deteted in all T cell subsets analyzed
same,mitochondrial content (Mitotracker Red) in CD8+ cells,"CD8+ T cells; 24 hours, UA25, UA50",loss of mitochondrial content in a dose-dependent manner
same,"TSCM formation, stimulated vs unstimulated CD8+ cells","CD8+ T cells; 48 h, aCD3/CD28 beads +-UA or unstimulated",only formed in activated T cells
same,PGC-1 expression in CD8+ cells,"CD8+ T cells; 48 h, prolonged UA administration in vitro",marked upregulation of PGC-1
same,CD95 expression in CD62L+CD44-CD8+ cells,CD8+ T cells; 48 hours after stimulation,increased CD95 expression
same,TCF1 expression,CD8+ T cells; 48 h stimulation,high expression of TCF1
same,cyclin D1 expression,CD8+ T cells; 48 h stimulation,reduced cyclin D1 expression
same,differentiation into effector T cells (effector molecule expression),CD8+ T cells; 48 h stimulation,blocked differentiation into effector T cells
same,mitochondrial membrane potential (TMRM) in naive CD62L+CD44-CD8+ T cells,CD8+ T cells; 48 h stimulation,reduced mitochondrial membrane potential
same,naive CD44loCD62Lhi T cells,"CD8+ T cells; 48 h stimulation, different doses of UA",significant increase
same,CD8+ T cell division (CTV staining),CD8+ T cells; 72 h stimulation,restricted CD8+T cell division in a dose-dependent manner
same,mitochondrial membrane potential in CD8+ T cells,CD8+ T cells; six hours after UA administration,reduction of mitochondrial membrane potential
same,lysosome formation in CD8+ cells,CD8+ T cells; six hours after stimulation,enhanced lysosome formation
same,bioavailability profile,[1],favourable bioavailability profile
same,safety,[1],deemed safe
same,mitochondrial content in TIL of APTK tumors,TIL CD8+ population; UA or control diet,increased mitochondrial content
same,CD8+CD44loCD62LhiSca1hi T cells (TSCM) in APTK-induced tumors,TIL CD8+ population; UA-fed mice,marked increase
same,TCF1 expression in tumor infiltrating CD8+ T cells,TIL CD8+ population; UA-fed mice,increased expression
same,"dendritic cells (DCs), TAMs, MDSC subsets in TME",TIL CD8+ population; UA-fed mice,no change
same,exhaustion marker CTLA-4 in CD8+ T cells,TIL CD8+ population; UA-fed mice,reduction
same,exhaustion marker PD-1 in CD8+ T cells,TIL CD8+ population; UA-fed mice,reduction
same,exhaustion marker Tim3 in CD8+ T cells,TIL CD8+ population; UA-fed mice,reduction
same,IFNg induction in tumor infiltrating CD8+ T cells,TIL CD8+ population; [2],stronger induction
same,TNFa induction in tumor infiltrating CD8+ T cells,TIL CD8+ population; [2],stronger induction

# From patent US20230277669A1, “USES OF UROLITHINS” (Amazentis SA, priority 2022, published 2023)
